Results on 19 compounds are retold here after patent US11230547B2, “Purine inhibitors of human phosphatidylinositol 3-kinase delta” (Merck Sharp & Dohme Corp., priority 2017, dated 2022).

The term IC50 denotes the concentration that inhibits the measured activity by half. A higher IC50 goes with weaker potency.

Test [1] has as its target PI3Kdelta (Homo sapiens (Human), UniProt O00329). Nature of the test: HTRF PI3K biochemical assay, delta isoform. Conditions: 0.3 nM enzyme, 100 uM ATP, 5 uM PIP2, form screened per table. The text has this: (§1) HTRF PI3K Biochemical Assay to Measure Intrinsic Potency of Compound Inhibitors
(§2) The PI3-Kinase biochemical assays were developed to measure the intrinsic potency and compound dependent inhibition of the alpha, beta, delta, and gamma PI3K isoform enzymes. This assay was developed and further optimized from a kit produced by Upstate (Millipore catalog #33-047) (Millipore Sigma, Billerica Mass., USA) and has been configured for high throughput screening (HTS) and structure-activity relationship (SAR) screening. Briefly, this procedure exploits the exquisite specificity and high affinity binding of […] phosphatidyl(3,4,5)triphosphate (PIP3) to the GRP1 pleckstrin homology (PH) domain to generate the signal. In the absence of PIP3, an HTRF (Homogeneous Time-Resolved Fluorescence energy transfer) complex is formed consisting of europium (u)-labeled anti-GST, GST tagged GRP1-PH domain, biotin-PIP3 (biotinylated-PIP3) and streptavidin conjugated APC (Allophycocyanin). The native PIP3 produced by PI3-Kinase activity disrupts in a competitive manner the biotin-PIP3 from the pleckstrin homology (PH) domain, resulting in the loss of energy transfer (HTRF complex) and a decrease in the signal. The format of this assay is the same for all 4 isoforms of PI3K; the differences lie in the concentration of enzyme used to achieve robust assay window. The alpha, beta, and delta assays are run at 0.5, 1, and 0.3 nM enzymes and the gamma assay is run at 5 nM enzyme. The ATP concentration is 100 uM in the alpha, beta, and delta assays and 50 uM adenosine triphosphate (ATP) in the gamma assay. All reactions are run at 5 uM PIP2.
(§3) Compounds are serially diluted (3-fold in 100% DMSO) across a 384-well polypropylene source plated from column 3 to column 12 and column 13 to column 22, to yield 10 concentration dose response for each test compound. Columns 1, 2, 23 and 24 contain either only DMSO or pharmacological known control inhibitor. Once titrations are made, 2.5 nL of the compounds on 384 well plates are reformatted and transferred by acoustic dispense in quadruplicates to a 1536 assay plate (Greiner) to assay across all four PI3K isoform enzymes.
(§4) The PI3-Kinase biochemical assay was optimized using the HTRF kit provided by Upstate (Millipore). The assay kit contains six reagents: 1) 4× Reaction Buffer; 2) native PIP2 (substrate); 3) Stop (EDTA); 4) Detection Mix A (Streptavidin-APC); 5) Detection Mix B (Eu-labeled Anti-GST plus GST-tagged PH-domain); 6) Detection Mix C. In addition, the following items were obtained or purchased; PI3Kinase (catalog #'s alpha 14-602, beta 14-603, gamma 14-558 and delta 14-604 from Upstate Biotechnology now EMD Millipore, Mahopac, N.Y., USA), dithiothreitol (Sigma-Aldrich Corp. (St. Louis, Mo., USA) Catalog #D-5545), Adenosine-5′ triphosphate (InVitrogen (Waltham, Mass., USA), Cat#AS001A), native PIP3 (PI(3,4,5)P3, diC8, H^+, CELLSIGNALS, INC., (Columbus, Ohio, USA) Cat #907) DMSO ((Sigma-Aldrich Corp. (St. Louis, Mo., USA) Catalog #472301).
(§5) PI3Kinase Reaction Buffer is prepared by dilution the stock 1:4 with de-ionized water. DTT (DL-Dithiothreitol), phosphatidylinositol 4,5-bisphosphate (PIP2) and Biotin-PIP3 were added to 1536 assay plate at a final concentration of 5 mM, […] and 25 nM on the day of use. Enzyme addition and compound pre-incubation are initiated by the addition of 1.25 ul of PI3K (at twice its final concentration) in the 1× reaction buffer to all wells using a BioRaptr™ (Beckman Coulter, Waltham, Mass. USA). Plates are incubated at room temperature for 15 minutes. Reactions are initiated by addition of 1.25 ul of 2× substrate solution (PIP2 and ATP in 1× reaction buffer) using BioRaptr™. Plates are incubated in humidified chamber at room temperature for one hour. Reactions are quenched by addition of 0.625 uL of stop solution to all wells using the BioRaptr™. […]
For orientation: Time-resolved FRET reads energy transfer from a long-lived donor to a nearby acceptor.

Test [2] has as its target PI3Kalpha (Homo sapiens (Human), UniProt P42336). Kind of test: HTRF PI3K biochemical assay, alpha isoform (selectivity versus delta). The conditions noted are these: relative ratio PI3K-alpha IC50 value / PI3K-delta IC50 value.
Excerpt: as §1, §2, §3, §4, §5

A value given as a limit tells only on which side of the number the result lay.

Sequence of PI3Kalpha (P42336 whole entry, canonical isoform): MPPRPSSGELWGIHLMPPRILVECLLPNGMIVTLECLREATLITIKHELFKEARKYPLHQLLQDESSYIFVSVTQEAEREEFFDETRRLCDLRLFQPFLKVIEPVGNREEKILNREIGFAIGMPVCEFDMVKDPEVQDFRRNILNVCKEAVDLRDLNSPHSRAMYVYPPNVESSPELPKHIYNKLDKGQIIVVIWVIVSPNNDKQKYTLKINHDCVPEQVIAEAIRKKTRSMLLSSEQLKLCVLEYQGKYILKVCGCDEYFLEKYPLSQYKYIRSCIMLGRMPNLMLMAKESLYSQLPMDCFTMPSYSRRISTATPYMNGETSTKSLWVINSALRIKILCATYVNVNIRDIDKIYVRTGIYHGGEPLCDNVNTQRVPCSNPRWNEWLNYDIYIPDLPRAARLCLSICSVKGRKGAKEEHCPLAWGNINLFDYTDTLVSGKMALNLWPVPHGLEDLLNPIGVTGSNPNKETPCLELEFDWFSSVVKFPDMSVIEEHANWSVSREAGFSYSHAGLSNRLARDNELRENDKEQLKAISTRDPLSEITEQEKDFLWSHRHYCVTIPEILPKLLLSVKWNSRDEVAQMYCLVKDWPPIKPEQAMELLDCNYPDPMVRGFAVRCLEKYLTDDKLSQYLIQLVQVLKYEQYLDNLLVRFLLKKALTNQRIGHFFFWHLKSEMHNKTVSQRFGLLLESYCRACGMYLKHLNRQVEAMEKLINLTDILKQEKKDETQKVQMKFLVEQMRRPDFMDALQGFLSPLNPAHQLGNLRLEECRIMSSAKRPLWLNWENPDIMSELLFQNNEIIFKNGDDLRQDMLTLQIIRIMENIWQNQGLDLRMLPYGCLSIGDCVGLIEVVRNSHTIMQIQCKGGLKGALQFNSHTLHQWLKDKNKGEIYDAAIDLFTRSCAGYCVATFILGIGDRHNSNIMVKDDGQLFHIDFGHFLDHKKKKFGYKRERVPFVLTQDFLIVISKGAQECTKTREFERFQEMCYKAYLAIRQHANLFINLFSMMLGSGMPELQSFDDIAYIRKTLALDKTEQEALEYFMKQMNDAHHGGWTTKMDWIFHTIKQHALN
Sequence of PI3Kalpha (P27986 whole entry partner, canonical isoform): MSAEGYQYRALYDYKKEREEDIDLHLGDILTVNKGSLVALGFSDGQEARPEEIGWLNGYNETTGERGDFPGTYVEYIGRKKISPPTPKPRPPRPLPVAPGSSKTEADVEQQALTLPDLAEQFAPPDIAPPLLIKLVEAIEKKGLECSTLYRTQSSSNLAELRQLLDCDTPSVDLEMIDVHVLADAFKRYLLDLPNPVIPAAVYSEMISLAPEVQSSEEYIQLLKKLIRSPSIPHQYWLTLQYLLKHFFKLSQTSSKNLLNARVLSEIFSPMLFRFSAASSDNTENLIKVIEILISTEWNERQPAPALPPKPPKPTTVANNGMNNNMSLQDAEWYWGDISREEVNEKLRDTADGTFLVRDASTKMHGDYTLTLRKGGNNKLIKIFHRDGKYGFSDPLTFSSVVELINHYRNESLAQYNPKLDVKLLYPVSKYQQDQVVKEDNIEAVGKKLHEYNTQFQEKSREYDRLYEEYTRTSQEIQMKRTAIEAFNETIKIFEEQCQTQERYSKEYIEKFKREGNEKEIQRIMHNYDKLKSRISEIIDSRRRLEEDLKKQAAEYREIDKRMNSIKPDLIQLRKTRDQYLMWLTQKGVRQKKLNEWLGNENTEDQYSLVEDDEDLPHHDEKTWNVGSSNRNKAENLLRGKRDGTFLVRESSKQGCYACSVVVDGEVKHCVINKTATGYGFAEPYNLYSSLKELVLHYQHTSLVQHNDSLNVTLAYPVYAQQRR
Sequence of PI3Kdelta (O00329 whole entry, canonical isoform): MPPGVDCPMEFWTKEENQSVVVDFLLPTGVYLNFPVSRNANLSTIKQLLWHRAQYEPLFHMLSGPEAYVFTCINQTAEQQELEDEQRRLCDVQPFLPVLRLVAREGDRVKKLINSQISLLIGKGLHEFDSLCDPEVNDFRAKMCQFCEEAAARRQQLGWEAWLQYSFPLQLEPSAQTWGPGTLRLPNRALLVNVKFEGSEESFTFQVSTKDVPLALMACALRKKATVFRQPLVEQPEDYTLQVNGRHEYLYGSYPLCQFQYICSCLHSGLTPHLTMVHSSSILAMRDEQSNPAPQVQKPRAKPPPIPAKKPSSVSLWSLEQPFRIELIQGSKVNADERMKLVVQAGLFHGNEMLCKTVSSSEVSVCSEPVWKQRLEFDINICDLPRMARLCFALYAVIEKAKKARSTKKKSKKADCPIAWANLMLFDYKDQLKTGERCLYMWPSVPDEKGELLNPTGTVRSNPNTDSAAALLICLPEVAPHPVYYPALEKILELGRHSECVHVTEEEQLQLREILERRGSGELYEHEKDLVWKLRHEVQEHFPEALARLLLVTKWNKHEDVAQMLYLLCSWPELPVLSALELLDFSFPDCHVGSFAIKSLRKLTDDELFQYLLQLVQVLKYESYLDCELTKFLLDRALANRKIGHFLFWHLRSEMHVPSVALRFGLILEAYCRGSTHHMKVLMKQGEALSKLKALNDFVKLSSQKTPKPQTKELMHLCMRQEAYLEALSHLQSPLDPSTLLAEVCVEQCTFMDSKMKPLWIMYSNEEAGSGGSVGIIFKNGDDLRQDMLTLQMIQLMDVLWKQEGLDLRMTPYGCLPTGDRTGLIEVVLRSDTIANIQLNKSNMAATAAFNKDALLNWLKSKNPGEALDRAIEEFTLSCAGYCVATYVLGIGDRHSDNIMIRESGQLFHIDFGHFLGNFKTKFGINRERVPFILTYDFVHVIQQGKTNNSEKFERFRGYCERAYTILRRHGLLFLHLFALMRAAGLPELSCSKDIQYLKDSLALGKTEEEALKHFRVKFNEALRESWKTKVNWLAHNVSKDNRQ
Sequence of PI3Kdelta (P27986 whole entry partner, canonical isoform): as the sequence (P27986 whole entry partner, canonical isoform) above

`Cn1cc(-c2ncc(C#N)c(N3CC4C[C@H]3CN4c3cccc(S(C)(=O)=O)c3)n2)cn1` (stereo in doubt) [Compound 1-15, 2-(1-methyl-1H-pyrazol-4-yl)-4-{(1S,4R)-5-[3-(methylsulfonyl)phenyl]-2,5-diazabicyclo[2.2.1]hept-2-yl}pyrimidine-5-carbonitrile]: the IC50 in test [1] is 27 nM. In test [2], the “Selectivity versus PI3Kalpha” value was above 10.
With `CCCc1nc(-c2cnn(C)c2)nc(N2CCN(C(=O)C3CC3)[C@H](C)C2)c1C#N` [Compound 6-24, 4-[(3R)-4-(cyclopropylcarbonyl)-3-methylpiperazin-1-yl]-2-(1-methyl-1H-pyrazol-4-yl)-6-propylpyrimidine-5-carbonitrile], the half-inhibitory concentration (IC50) in test [1] worked out at 200 nM. The “Selectivity versus PI3Kalpha” value in test [2] is reported as above 10.
In test [1], `C[C@@H]1CN(c2ncc(C#CCO)c(-c3cnn(C)c3)n2)CCN1C(=O)C1CC1` [Compound 5-1, 3-{2-[(3R)-4-(cyclopropylcarbonyl)-3-methylpiperazin-1-yl]-4-(1-methyl-1H-pyrazol-4-yl)pyrimidin-5-yl}prop-2-yn-1-ol] had an IC50 of 19 nM. For the same compound, the “Selectivity versus PI3Kalpha” value in test [2] is above 10.
The matching figures for `N#Cc1cnc(N2CCc3[nH]ncc3C2)nc1N1CC2C[C@H]1CN2c1cccc(F)c1` (stereo in doubt) [Compound 1-22, 4-[(1S,4R)-5-(3-fluorophenyl)-2,5-diazabicyclo[2.2.1]hept-2-yl]-2-(1,4,6,7-tetrahydro-5H-pyrazolo[4,3-c]pyridin-5-yl)pyrimidine-5-carbonitrile]: 950 nM and 10.
Compound `C[C@@H]1CN(c2nc(-c3cnn(C)c3)ncc2C#N)CCN1c1cccc([N+](=O)[O-])c1` [Compound 4-11, 4-[(3R)-3-methyl-4-(3-nitrophenyl)piperazin-1-yl]-2-(1-methyl-1H-pyrazol-4-yl)pyrimidine-5-carbonitrile] gave a half-maximal inhibitory concentration (IC50) in test [1] of 78 nM. In addition, in test [2], the “Selectivity versus PI3Kalpha” value is recorded as above 10.
In the case of `Cc1c(-c2ncc(C#N)c(N3CCN(C(=O)C4CC4)[C@H](C)C3)n2)cnn1C` [Compound 6-29, 4-[(3R)-4-(cyclopropylcarbonyl)-3-methylpiperazin-1-yl]-2-(1,5-dimethyl-1H-pyrazol-4-yl)pyrimidine-5-carbonitrile], the concentration for half-maximal inhibition (IC50) in test [1] was found to be 81 nM. In addition, in test [2], the “Selectivity versus PI3Kalpha” value was above 10.
The matching figures for `CC(=O)Nc1nc(-c2cnn(C)c2)nc(N2CCN(C(=O)C3CC3)[C@H](C)C2)c1C#N` [Compound 6-3, N-{5-cyano-6-[(3R)-4-(cyclopropylcarbonyl)-3-methylpiperazin-1-yl]-2-(1-methyl-1H-pyrazol-4-yl)pyrimidin-4-yl}acetamide]: 480 nM and above 10.
The corresponding values for `C#Cc1cnc(N2CCN(C(=O)C3CC3)[C@H](C)C2)nc1-c1cnn(C)c1` [Compound 5-9, 2-[(3R)-4-(cyclopropylcarbonyl)-3-methylpiperazin-1-yl]-5-ethynyl-4-(1-methyl-1H-pyrazol-4-yl)pyrimidine] are 50 nM and above 10.
The matching figures for `Cn1cc(-c2ncc(C#N)c(N3C[C@@H]4C[C@H]3CN4c3cccc(F)c3)n2)cn1` [Compound 1-16, 4-[(1S,4S)-5-(3-fluorophenyl)-2,5-diazabicyclo[2.2.1]hept-2-yl]-2-(1-methyl-1H-pyrazol-4-yl)pyrimidine-5-carbonitrile]: 31 nM and above 10.
Compound `COc1cccc(N2C[C@@H]3CC2CN3c2nc(-c3cnn(C)c3)ncc2C#N)c1` (stereo in doubt) [Compound 1-14, 4-[(1S,4R)-5-(3-methoxyphenyl)-2,5-diazabicyclo[2.2.1]hept-2-yl]-2-(1-methyl-1H-pyrazol-4-yl)pyrimidine-5-carbonitrile] displayed a half-inhibitory concentration (IC50) in test [1] of 71 nM. The “Selectivity versus PI3Kalpha” value in test [2] was above 10.
In test [1], `C[C@@H]1CN(c2nc(-c3cnn(C)c3)ncc2C#N)CCN1C(=O)C1CC1` [Compound 4-1, 4-[(3R)-4-(cyclopropylcarbonyl)-3-methylpiperazin-1-yl]-2-(1-methyl-1H-pyrazol-4-yl)pyrimidine-5-carbonitrile] gave a concentration for half-maximal inhibition (IC50) of 110 nM. Moreover, the “Selectivity versus PI3Kalpha” value in test [2] is reported as above 10.
`Cn1cc(-c2ncc(C#N)c(N3CC4C[C@H]3CN4c3cccnc3)n2)cn1` (stereo in doubt) [Compound 1-6, 2-(1-methyl-1H-pyrazol-4-yl)-4-[(1S,4R)-5-pyridin-3-yl-2,5-diazabicyclo[2.2.1]hept-2-yl]pyrimidine-5-carbonitrile] yielded an IC50 in test [1] of 110 nM. In addition, the “Selectivity versus PI3Kalpha” value in test [2] is listed as above 10.
On to `Cn1cc(-c2ncc(C#N)c(N3CC4CCC(C3)N4c3cccc(F)c3)n2)cn1` [Compound 3-4, 4-[8-(3-fluorophenyl)-3,8-diazabicyclo[3.2.1]oct-3-yl]-2-(1-methyl-1H-pyrazol-4-yl)pyrimidine-5-carbonitrile], for which half-maximal inhibition in test [1] (IC50) was put at 1000 nM. In test [2], the “Selectivity versus PI3Kalpha” value is recorded as above 10.
The compound `CC(C)Nc1nc(-c2cnn(C)c2)nc(N2CCN(C(=O)C3CC3)[C@H](C)C2)c1C#N` [Compound 6-20, 4-[(3R)-4-(cyclopropylcarbonyl)-3-methylpiperazin-1-yl]-6-[(1-methylethyl)amino]-2-(1-methyl-1H-pyrazol-4-yl)pyrimidine-5-carbonitrile] yielded an IC50 in test [1] of 150 nM. Further, the “Selectivity versus PI3Kalpha” value in test [2] is on record as above 10.
The corresponding values for `C[C@@H]1CN(c2nc(-c3cnn(C)c3)ncc2Cl)CCN1C(=O)C1CC1` [Compound 5-13, 5-chloro-4-[(3R)-4-(cyclopropylcarbonyl)-3-methylpiperazin-1-yl]-2-(1-methyl-1H-pyrazol-4-yl)pyrimidine] are 620 nM and above 10.
`C[C@@H]1CN(c2nc(-c3cnn(C(F)F)c3)ncc2C#N)CCN1C(=O)C1CC1` [Compound 6-30, 4-[(3R)-4-(cyclopropylcarbonyl)-3-methylpiperazin-1-yl]-2-[1-(difluoromethyl)-1H-pyrazol-4-yl]pyrimidine-5-carbonitrile] gave a half-inhibitory concentration (IC50) in test [1] of 330 nM. Besides, the “Selectivity versus PI3Kalpha” value in test [2] is given as above 10.
Regarding `Cn1cc(-c2ncc(C#N)c(N3CC4C[C@H]3CN4S(=O)(=O)C3CC3)n2)cn1` (stereo in doubt) [Compound 2-2, 4-[(1S,4R)-5-(cyclopropylsulfonyl)-2,5-diazabicyclo[2.2.1]hept-2-yl]-2-(1-methyl-1H-pyrazol-4-yl)pyrimidine-5-carbonitrile], the concentration for half-maximal inhibition (IC50) in test [1] was 1200 nM. Further, the “Selectivity versus PI3Kalpha” value in test [2] is above 10.
The compound `Cn1cc(-c2ncc(C#N)c(N3CC4C[C@H]3CN4C(=O)C3(C)COC3)n2)cn1` (stereo in doubt) [Compound 2-7, 4-{(1S,4R)-5-[(3-methyloxetan-3-yl)carbonyl]-2,5-diazabicyclo[2.2.1]hept-2-yl}-2-(1-methyl-1H-pyrazol-4-yl)pyrimidine-5-carbonitrile] came in with a half-maximal inhibitory concentration (IC50) in test [1] of 320 nM. The “Selectivity versus PI3Kalpha” value in test [2] was above 10.
Regarding `C[C@@H]1CN(c2nc(-c3cnn(C)c3)ncc2C#N)CCN1C(=O)C1CC12CCCC2` (stereo partly drawn) [Compound 4-7, 2-(1-methyl-1H-pyrazol-4-yl)-4-[(3R)-3-methyl-4-(spiro[2.4]hept-1-ylcarbonyl)piperazin-1-yl]pyrimidine-5-carbonitrile], in test [1], the IC50 is 87 nM. The “Selectivity versus PI3Kalpha” value in test [2] is reported as above 10.
